Source: patent publication US10308631B2, “Selective anti-cancer compounds” (NATIONAL UNIVERSITY OF SINGAPORE, priority 2015, dated 2019)

Experiments:
[1] = tested on: HCT-15 human colon adenocarcinoma xenografts; assay: Tumour xenograft efficacy, tumour volume; format: in vivo, mice; conditions: HCT15 xenografts; PO or IP twice a day, 12 days; vs vehicle
Description: A, B: is a graphical representation of tumour volumes estimated periodically as indicated. Mice bearing established tumour xenografts using HCT15 or MDA-MB-231 cells were treated orally (PO) or intraperitoneally (IP) twice a day with the indicated doses of Compound 1 or Compound 16 for 12 or 15 days. Paclitaxel (PTX) was given intravenously at dose of 40 mg/kg, 3 times every 4 days. Error bars show ±S.D. from mean tumour volumes obtained from 6 mice. Student's t-test was performed to determine the statistical significance (*=p<0.005). C: is a bar graph showing quantification of cells (n>100 per condition) with misaligned chromosomes and multipolar mitotic-spindles. […] tumour sections treated with Compound 16 (80 mg/kg) or control vehicle for 12 days were stained with anti-β-tubulin antibodies and DAPI. The percentage of cells with misaligned chromosomes and multipolar mitotic-spindles was quantified and plotted with mean values±S.D.
Mice bearing established tumor xenografts using HCT15 or MDA-MB-231 cells were treated orally (PO) or intraperitoneally (IP) twice a day with the indicated doses of Compound 1 or its derivative Compound 16 (b5) for 12 or 15 days, respectively. For comparison, paclitaxel (PTX) was given intravenously to mice bearing established tumour xenografts using HCT15 at dose of 40 mg/kg, 3 times every 4 days.

[2] = tested on: non-transformed normal BJ cells; assay: BrdU incorporation and FACS analysis (cell cycle arrest); format: cell-based, human
Description: A: is output from a FACS analysis of isogenic-non-transformed, without (panels a-c) (WT) or with (panels d-f) shRNA-mediated knockdown of p53 (p53KD), and oncogene-transformed BJ cells (panels g-i), each treated with 0, 5 or 2.5 μM Compound 1 (a131) for 24 h. Cells were doubly stained with PI (horizontal axis) and BrdU (vertical axis). The BrdU-positive population in panels a-c are indicated as arrows. B: is a diagrammatic representation of an immunoblot analysis showing isogenic non-transformed (normal) and oncogene-transformed BJ cells (transformed) treated with Compound 1 (a131) at 0, 2.5 or 5 μM for 24 h or 48 h. Cells were harvested and total lysates were analysed by detecting p53 and p21. Antibodies raised against β-actin were used as an internal loading control. C and D are histograms showing the percentage of bromodeoxyuracil (BrdU)-positive non-transformed (normal) BJ cells. C: Cells were treated with Group 1 Compound 1 (a131) at 2.5 and 5 μM, Compound 23 (b36) at 2.5 and 5 μM, and Compound 21 (b35) at 5 μM, and Group 2 Compound 25 (a166) at 2.5 and 5 μM, for 24 h. Cells were doubly stained with propidium iodide (PI) and BrdU, and subjected to FACS analysis. The BrdU-positive population are plotted as bars. D: Cells were treated with Group 1 Compound 1 (a131), Compound 16 (b5), and Compound 17 (b9); Group 2 Compound 13 (b12), Compound 12 (b16) and Compound 25 (a166), and Group 3 Compound 3 (a159) at 5 μM for 48 h. The percentage of cells with BrdU positive population, in comparison with DMSO control vehicle, is shown with mean values±S.D. (n=3).
Isogenic non-transformed and oncogene-transformed BJ cells (cultured as in Biology Example 3) were treated with Compound 1 at final concentrations of 2.5 and 5 μM for 24 h. The treated cells were then treated with 30 μM final concentration of 5-bromo-2′-deoxyuridine (BrdU, SIGMA) for 1 h to detect DNA synthesis as a marker for cell proliferation. Subsequently, the cells were fixed in EtOH at 4° C. overnight and permeabilized with 2N HCl/0.5% Triton X-100 for 30 min. The cells were then treated with 0.1M sodium tetraborate for 2 min and stained with anti-BrdU antibody (Invitrogen, Cat#B35129) for 60 min, followed by a 30 min treatment with 20 μg/mL of propidium iodide (PI) and 10 μg/mL RNaseA.
Furthermore, the abilities of additional five (5) Compounds to arrest cells at the stage of G1/S phase of the cell cycle were evaluated. […] The abilities of these Compounds to arrest cells at the stage of G1/S phase of the cell cycle were then measured by using BrdU incorporation assay and FACS analysis. The percentage of cells with BrdU positive population in comparison with DMSO control vehicle was determined and plotted with mean values±S.D. (n=3).

[3] = tested on: phospho-histone H3 (pH3) in HeLa cells; assay: Immunoblot analysis of phospho-histone H3 in HeLa cells; format: cell-based, human; conditions: 6 h
Description: FIG. 1 is a diagrammatic representation of an immunoblot analysis showing the dual inhibition of the autophagic process and mitotic progression by Compound 1 (a131). HeLa cells were treated with the indicated μM concentration of Compound 1 (a131) or chloroquine for 6 h. Cells were harvested and total lysates were analysed by detecting the mitotic marker phospho-histone H3 at serine 10 (pH3 (Ser10)) and the autophagosome marker LC3. The band intensity ratios of LC3-II/LC3-I as compared to DMSO control (lane 1, 0 μM chloroquine, and lane 7, 0 μM a131) are indicated (Ratio). Antibodies raised against β-actin were used as an internal loading control.
The ability of Compound 1 to inhibit lysosome function was examined using immunoblotting. HeLa cervical cancer cells were cultured in Dulbecco's modified Eagle's medium (DMEM) supplemented with 10% Fetal Bovine Serum (FBS, Thermo Scientific). […]
Defects in lysosome function and inhibition of autophagy can be measured by accumulation of LC3-phosphatidylethanolamine conjugated non-soluble form (LC3-II), which are converted from soluble LC3-I. Thus, antibodies raised against LC3 (Cell Signaling, Cat#4108) were used to determine lysosomal function and integrity. […] The inhibitory ability of Compound 1 was also quantitatively compared to CQ.

N#C/C(=C\c1cccc2cnccc12)c1c[nH]c2ccccc12 [Compound 1, (Z)-2-(1H-indol-3-yl)-3-(isoquinolin-5-yl)acrylonitrile]
anti-tumour effect (tumour volume) [1]: showed marked anti-tumour effects
BrdU-positive cell population ([2]; 24 h, 2.5 and 5 μM (FIG. 9A, 9C)): markedly decreased the number of BrdU-positive non-transformed normal BJ cells
inhibition of mitotic progression (levels of phospho-histone H3) [3]: potently inhibits mitotic progression

N#C/C(=C\c1cccc2ncccc12)c1c[nH]c2ccccc12 [Compound 3, (Z)-2-(1H-indol-3-yl)-3-(quinolin-5-yl)acrylonitrile]
arrest at the G1/S phase of the cell cycle (BrdU incorporation) ([2]; 5 μM, 48 h (FIG. 9D)): failed to do so

CN1CCN(CC(=O)n2cc(/C(C#N)=C/c3cccc4cnccc34)c3ccccc32)CC1 [Compound 16, (Z)-3-(isoquinolin-5-yl)-2-(1-(2-(4-methylpiperazin-1-yl)acetyl)-1H-indol-3-yl)acrylonitrile]
anti-tumour effect (tumour volume) [1]: showed marked anti-tumour effects
